The numbers were not newly measured in patent US20070065513A1, “Stable lansoprazole formulation” (priority 2003, published 2007), which cites them from elsewhere.

Where two headings read alike, the source gives them in different places.

As to `COc1ccc2[nH]c([S+]([O-])Cc3ncc(C)c(OC)c3C)nc2c1` (stereo not drawn) [Omeprazole, 5methoxy-2(((4-methoxy-3,5-dimethyl-2-pyridinyl)methyl)sulfinyl)-1H-benzimidazole], the half life (pH 6.5) was 18 h and the half life result (pH 11) is “about 300 days”. In addition, where the note is “pH values below 4.0”, the half-life of degradation result was “less than 10 minutes”.
